Reference: patent US12410153B2, “Compounds, compositions and methods” (Avalo Therapeutics, Inc., priority 2014, dated 2025)
Like-named read-outs stand apart in the source and are kept apart here.

Experiment: Repeated once-daily oral dosing with food (Days 1-7) in healthy subjects, PK and PD
Format: in vivo, human
Protocol: A randomized, double-blind, placebo-controlled, parallel-dose group in-patient study is conducted to investigate the pharmacodynamic (PD) effects of crystalline Form II of Compound (I) in healthy subjects.
The study is designed as a three-part, sequential study. The sequential nature of the study ensures that a range of doses are investigated first in a young, healthy population (Part 1) before proceeding to higher doses in the healthy population and the comparator populations (intermediate age and elderly) (Parts 2 and 3). For the purposes of this study, “young” refers to a subject who is 18 to 45 years of age, “intermediate age” refers to a subject who is 46 to 64 years of age, and “elderly” refers to a subject who is 65 years of age or older.
After a screening period of up to 21 days (Days −23 to −3), 16 healthy, young male and female subjects are randomly assigned to a dose group as shown in Table 9.
Each parallel dose group is balanced for gender (approximately equal number of males and females). The randomized subjects are domiciled from Day −1 through Day 8. On Day −1, the subjects receive placebo tablets in the fed state and undergo ambulatory blood pressure monitoring (ABPM) and safety assessments to establish time-matched baselines. On Days 1-7, the subjects receive the study drug in the fed state and undergo safety, pharmacokinetic (PK) and pharmacodynamics (PD) assessments. On Days 8-11, follow-up PK and safety assessments are performed.
Safety assessments include Clinician-Administered Dissociative States Scale (CADSS), Columbia-Suicide Severity Rating Scale (C-SSRS), concomitant medication, adverse event (AE) and vital sign assessments. In PK assessments, blood samples are taken and analyzed to determine PK parameters such as Cmax, Tmax, AUC0-24, and t1/2. PD assessments include ABPM, plasma brain-derived neurotrophic factor (BDNF) measurements, and Profile of Mood States (POMS) assessments.
After a screening period of up to 21 days (Days −23 to −3), 16 subjects (8 healthy, young male and female subjects, and 8 healthy, intermediate age male and female subjects) are randomly assigned to a dose group as shown in Table 10.
After a screening period of up to 21 days (Days −23 to −3), 16 subjects (8 healthy, young male and female subjects, and 8 healthy, elderly male and female subjects) are randomly assigned to a dose group as shown in Table 11.

Structure (SMILES): Cc1ccc(COC(=O)N2CC[C@H](CNc3ncccn3)[C@H](F)C2)cc1 [Form II, 4-methylbenzyl (3S, 4R)-3-fluoro-4-[(pyrimidin-2-ylamino)methyl] piperidine-1-carboxylate]
- Tmax (male, human, plasma, oral, males, all doses pooled, Day 1, read-out: tmax, Median): 2 h
- AUC(0-t) (male, human, plasma, oral, males, all doses pooled, Day 7, read-out: AUC0-24, Mean (SD)): 3750 ng·h/mL
- AUC(0-inf) (male, human, plasma, oral, males, all doses pooled, Day 7, read-out: AUCinf, Mean (SD)): 6770 ng·h/mL
- AUC(0-t) (male, human, plasma, oral, males, all doses pooled, Day 7, read-out: AUClast, Mean (SD)): 6350 ng·h/mL
- Cmax (male, human, plasma, oral, males, all doses pooled, Day 7, read-out: Cmax, Mean (SD)): 355 ng/mL
- Vd/F (male, human, plasma, oral, males, all doses pooled, Day 7, read-out: Vss/F, Mean (SD)): 108 L
- half-life (male, human, plasma, oral, males, all doses pooled, Day 7, read-out: t1/2, Mean (SD) (converted)): 20.6 h
- Tmax (male, human, plasma, oral, males, all doses pooled, Day 7, read-out: tmax, Mean (SD)): 1.88 h
- Tmax (male, human, plasma, oral, males, all doses pooled, Day 7, read-out: tmax, Median): 1.75 h
- Day 7/Day 1 Cmax Ratio, Mean (SD) (males, all doses pooled): 1.36 (0.22)
- Observed Accumulation Index, Mean (SD) (males, all doses pooled): 1.72 (0.28)
- Steady State Accumulation Index, Mean (SD) (males, all doses pooled): 1.15 (0.16)
- CL/F, Mean (SD) (males, all doses pooled, Day 1): 6.19 (1.15) L/h
- Dose-Normalized Cmax, Mean (SD) (males, all doses pooled, Day 1): 19.78 (3.09) ng/mL/mg
- AUC% extrap, Mean (SD) (males, all doses pooled, Day 7): 6.06 (5.38) %
- CL/F, Mean (SD) (males, all doses pooled, Day 7): 3.74 (0.83) L/h
- Dose-Normalized AUCinf, Mean (SD) (males, all doses pooled, Day 7): 512.15 (188.98) h * ng/mL/mg
- Dose-Normalized Cmax, Mean (SD) (males, all doses pooled, Day 7): 26.21 (3.94) ng/mL/mg
- steady-state predose plasma concentrations achieved by (repeated daily doses): ≤ 5 study day
- steady-state accumulation index, on average (seven days of daily dosing): 1.1
- Observed Accumulation Index, Mean (SD) (young subjects, 8 mg): 1.58 (0.19)
- CL/F, Mean (SD) (young subjects, 8 mg, Day 1): 5.36 (0.48) L/h
- Dose-Normalized Cmax, Mean (SD) (young subjects, 8 mg, Day 1): 22.42 (2.27) ng/mL/mg
- AUC% extrap, Mean (SD) (young subjects, 8 mg, Day 7): 8.61 (8.27) %
- CL/F, Mean (SD) (young subjects, 8 mg, Day 7): 3.37 (0.37) L/h
- Dose-Normalized AUCinf, Mean (SD) (young subjects, 8 mg, Day 7): 513.73 (174.76) h * ng/mL/mg
- Dose-Normalized Cmax, Mean (SD) (young subjects, 8 mg, Day 7): 28.00 (3.75) ng/mL/mg
- Day 7/Day 1 Cmax Ratio, Mean (SD) (young subjects, 12 mg): 1.15 (0.18)
- Observed Accumulation Index, Mean (SD) (young subjects, 12 mg): 1.65 (0.31)
- Steady State Accumulation Index, Mean (SD) (young subjects, 12 mg): 1.01 (0.08)
- CL/F, Mean (SD) (young subjects, 12 mg, Day 1): 6.46 (0.18) L/h
- Dose-Normalized Cmax, Mean (SD) (young subjects, 12 mg, Day 1): 19.92 (2.78) ng/mL/mg
- AUC% extrap, Mean (SD) (young subjects, 12 mg, Day 7): 4.77 (2.72) %
- CL/F, Mean (SD) (young subjects, 12 mg, Day 7): 4.00 (0.60) L/h
- Dose-Normalized AUCinf, Mean (SD) (young subjects, 12 mg, Day 7): 494.43 (177.79) h * ng/mL/mg
- Dose-Normalized Cmax, Mean (SD) (young subjects, 12 mg, Day 7): 22.79 (3.67) ng/mL/mg
- Observed Accumulation Index, Mean (SD) (young subjects, 16 mg): 1.70 (0.54)
- CL/F, Mean (SD) (young subjects, 16 mg, Day 1): 6.12 (0.90) L/h
- Dose-Normalized Cmax, Mean (SD) (young subjects, 16 mg, Day 1): 19.11 (1.97) ng/mL/mg
- AUC% extrap, Mean (SD) (young subjects, 16 mg, Day 7): 5.38 (5.13) %
- CL/F, Mean (SD) (young subjects, 16 mg, Day 7): 4.01 (1.21) L/h
- Dose-Normalized AUCinf, Mean (SD) (young subjects, 16 mg, Day 7): 501.47 (311.57) h * ng/mL/mg
- Dose-Normalized Cmax, Mean (SD) (young subjects, 16 mg, Day 7): 25.80 (4.07) ng/mL/mg
- Observed Accumulation Index, Mean (SD) (young subjects, 20 mg): 1.71 (0.22)
- CL/F, Mean (SD) (young subjects, 20 mg, Day 1): 5.90 (1.31) L/h
- Dose-Normalized Cmax, Mean (SD) (young subjects, 20 mg, Day 1): 19.18 (2.87) ng/mL/mg
- AUC% extrap, Mean (SD) (young subjects, 20 mg, Day 7): 2.88 (1.30) %
- CL/F, Mean (SD) (young subjects, 20 mg, Day 7): 3.51 (0.97) L/h
- Dose-Normalized AUCinf, Mean (SD) (young subjects, 20 mg, Day 7): 523.40 (175.33) h * ng/mL/mg
- Dose-Normalized Cmax, Mean (SD) (young subjects, 20 mg, Day 7): 26.72 (4.88) ng/mL/mg
